Type in all cases: cell-based
Test [1] deals with Staphylococcus aureus X1.1. As to the kind of experiment: In vitro antibacterial activity, standard agar-dilution assay. The note with it: Staphylococcus aureus X1.1; agar dilution; read-out: MIC. On the technique in general: In agar dilution the substance is mixed into plates at graded concentrations.
The test system of test [2] is Staphylococcus aureus V41. Described as above. Particulars: Staphylococcus aureus V41; agar dilution; read-out: MIC.
In test [3] the test system is Staphylococcus aureus X400. As to the kind of experiment: microbe, parasite or virus in culture.
In test [4] the test system is Staphylococcus aureus S13E. As to the kind of experiment: microbe, parasite or virus in culture.
Test [5] concerns Staphylococcus epidermidis EPI1. As to the kind of experiment: In vitro antibacterial activity, standard agar-dilution assay. Particulars: Staphylococcus epidermidis EPI1; agar dilution; read-out: MIC.
The subject of test [6] is Staphylococcus epidermidis 222. The description is as above. The note with it: Staphylococcus epidermidis 222; agar dilution; read-out: MIC.
The test system of test [7] is Streptococcus pyogenes C203. The test is described as above. The note with it: Streptococcus pyogenes C203; agar dilution; read-out: MIC.
In test [8] the test system is Streptococcus pneumoniae Park 1. Described as above. The note with it: PARK1; Streptococcus pneumoniae Park 1; agar dilution; read-out: MIC.
The subject of test [9] is Streptococcus faecium ATCC 9790. Described as above. Particulars: Enterococcus faecium, ATCC9790; Streptococcus faecium ATCC 9790; agar dilution; read-out: MIC.
The test system of test [10] is Streptococcus sp group D 2041. The test is described as above. The note with it: GROUPD2041; Streptococcus sp group D 2041; agar dilution; read-out: MIC.
The test system of test [11] is Haemophilus influenzae C.L. The description is as above. The note with it: Haemophilus influenzae C.L.; agar dilution; read-out: MIC.
The test system of test [12] is Haemophilus influenzae 76. The test is described as above. The note with it: Haemophilus influenzae 76; agar dilution; read-out: MIC.
The test system of test [13] is Escherichia coli N10. The test is described as above. The note with it: Escherichia coli N10; agar dilution; read-out: MIC.
The subject of test [14] is Escherichia coli EC14. Described as above. The note with it: Escherichia coli EC14; agar dilution; read-out: MIC.
Test [15] relates to Escherichia coli TEM. The test is described as above.
The subject of test [16] is Klebsiella pneumoniae X26. The description is as above. Particulars: Klebsiella pneumoniae X26; agar dilution; read-out: MIC.
The test system of test [17] is Klebsiella pneumoniae X68. The description is as above. The note with it: Klebsiella pneumoniae X68; agar dilution; read-out: MIC.
Test [18] concerns Klebsiella pneumoniae KAE. The test is described as above. Particulars: Klebsiella pneumoniae KAE; agar dilution; read-out: MIC.
The test system of test [19] is Salmonella sp. X514. Described as above. Particulars: Salmonella sp. X514; agar dilution; read-out: MIC.
The test system of test [20] is Shigella sonnei N9. The description is as above. Particulars: Shigella sonnei N9; agar dilution; read-out: MIC.
The test system of test [21] is Proteus morganii PR15. The test is described as above. The note with it: Morganella morganii; Proteus morganii PR15; agar dilution; read-out: MIC.
The test system of test [22] is Acinetobacter calcoaceticus AC12. The test is described as above. The note with it: Acinetobacter calcoaceticus AC12; agar dilution; read-out: MIC.
Test [23] has as its system Candida albicans. Put plainly: In vitro antifungal activity, standard disc-plate assay. Particulars: disc-plate assay, read-out: MIC.
In test [24] the test system is Trichophyton mentagrophytes. The test is described as above. Particulars: disc-plate assay, read-out: MIC.

Converted amounts (≈) assume the structure as drawn.

In the case of `[C-]#[N+][C@@H]1[C@@H]2c3c[nH]c4cccc(c34)C(C)(C)[C@H]2C[C@@H](Cl)[C@]1(C)C=C` [Compound 7, Hapalindole G], the MIC in [1] amounted to 64 µg/mL (≈ 189 µM); in test [2] it was 64 µg/mL (≈ 189 µM); in [3], 64 µg/mL (≈ 189 µM); in [4], 64 µg/mL (≈ 189 µM); in test [5], 8 µg/mL (≈ 23.6 µM); in test [6], 16 µg/mL (≈ 47.2 µM). Moreover, the MIC is 16 µg/mL (≈ 47.2 µM) in test [7]; 16 µg/mL (≈ 47.2 µM) in [8]; above 64 µg/mL in test [9]; above 64 µg/mL in [10]; 64 µg/mL (≈ 189 µM) in [11]; 64 µg/mL (≈ 189 µM) in test [12]. In addition, the MIC was above 64 µg/mL in test [13]; above 64 µg/mL in test [14]; above 64 µg/mL in test [15]; 64 µg/mL (≈ 189 µM) in [16]; above 64 µg/mL in [17]; above 64 µg/mL in test [18]. Further, the MIC in test [19] was above 64 µg/mL; in [20], above 64 µg/mL; in [21], above 64 µg/mL; in test [22], 16 µg/mL (≈ 47.2 µM); in [23], 10 µg/mL (≈ 29.5 µM); in test [24], 2.5 µg/mL (≈ 7.38 µM).
For `[C-]#[N+][C@@H]1[C@H]2c3c[nH]c4cccc(c34)C(C)(C)[C@@H]2CC[C@]1(C)C=C` [Compound 8, Hapalindole H], the MIC in [1] was above 64 µg/mL; in test [2], above 64 µg/mL; in test [3], above 64 µg/mL; in [4], above 64 µg/mL; in [5], 32 µg/mL (≈ 105 µM); in test [6] it was 32 µg/mL (≈ 105 µM). In addition, the MIC is 32 µg/mL (≈ 105 µM) in test [7]; 32 µg/mL (≈ 105 µM) in test [8]; above 64 µg/mL in test [9]; above 64 µg/mL in test [10]; above 64 µg/mL in test [11]; above 64 µg/mL in test [12]. For the same molecule, the MIC in test [13], in test [14], in [15], in [16], in test [17] and in test [18] was above 64 µg/mL in each case. The MIC in [19] was above 64 µg/mL; in [20], above 64 µg/mL; in [21], above 64 µg/mL; in test [22], 16 µg/mL (≈ 52.6 µM); in [23], 10 µg/mL (≈ 32.8 µM); in [24], 1.25 µg/mL (≈ 4.11 µM).
In the case of `C=C[C@@]1(C)CC[C@H](C(=C)C)[C@@H](c2c[nH]c3ccccc23)[C@H]1N=C=S` [Compound 4, Hapalindole D], the MIC came to 4 µg/mL (≈ 11.9 µM) in test [1]; 4 µg/mL (≈ 11.9 µM) in [2]; 8 µg/mL (≈ 23.8 µM) in [3]; 4 µg/mL (≈ 11.9 µM) in test [4]; 8 µg/mL (≈ 23.8 µM) in [5]; 4 µg/mL (≈ 11.9 µM) in test [6]. For the same molecule, the MIC in [7] is above 64 µg/mL; in test [8], above 64 µg/mL; in [9], 8 µg/mL (≈ 23.8 µM); in test [10], 8 µg/mL (≈ 23.8 µM); in test [11] it was above 64 µg/mL; in test [12] it was above 64 µg/mL. Also, the MIC in test [13], in test [14], in test [15], in test [16], in [17] and in [18] was above 64 µg/mL in each case. For the same molecule, the MIC in test [19] is above 64 µg/mL; in test [20], above 64 µg/mL; in test [21], above 64 µg/mL; in test [22], above 64 µg/mL; in test [23], above 20 µg/mL; in [24], above 20 µg/mL.
With `C=C[C@@]1(C)[C@H](Cl)C[C@H]2[C@H](c3c[nH]c4cccc(c34)C2(C)C)[C@H]1N=C=S` [Compound 2, Hapalindole B], the MIC in [1], in test [2], in [3], in test [4], in [5] and in test [6] was 2 µg/mL (≈ 5.39 µM) throughout. Besides, the MIC in test [7] is 64 µg/mL (≈ 173 µM); in test [8], 64 µg/mL (≈ 173 µM); in [9], 4 µg/mL (≈ 10.8 µM); in test [10] it was 8 µg/mL (≈ 21.6 µM); in test [11], above 64 µg/mL; in test [12] it was above 64 µg/mL. The MIC in test [13], in test [14], in [15], in test [16], in test [17] and in test [18] was above 64 µg/mL each time. The MIC is above 64 µg/mL in test [19]; above 64 µg/mL in test [20]; above 64 µg/mL in [21]; above 64 µg/mL in test [22]; above 20 µg/mL in test [23]; above 20 µg/mL in [24].
For `[C-]#[N+][C@@H]1[C@H]2c3c[nH]c4cccc(c34)C(C)(C)[C@H]2C[C@@H](Cl)[C@]1(C)C=C` [Compound 1, hapalindole A], the MIC in test [1] was 4 µg/mL (≈ 11.8 µM); in test [2], 4 µg/mL (≈ 11.8 µM); in test [3], 4 µg/mL (≈ 11.8 µM); in test [4], 4 µg/mL (≈ 11.8 µM); in [5] it was 2 µg/mL (≈ 5.9 µM); in test [6], 0.06 µg/mL (≈ 0.177 µM). Further, the MIC in [7] was 2 µg/mL (≈ 5.9 µM); in test [8], 16 µg/mL (≈ 47.2 µM); in test [9] it was 16 µg/mL (≈ 47.2 µM); in test [10], 16 µg/mL (≈ 47.2 µM); in test [11], 4 µg/mL (≈ 11.8 µM); in test [12], 4 µg/mL (≈ 11.8 µM). For the same molecule, the MIC is 4 µg/mL (≈ 11.8 µM) in test [13]; 8 µg/mL (≈ 23.6 µM) in test [14]; 4 µg/mL (≈ 11.8 µM) in test [15]; 4 µg/mL (≈ 11.8 µM) in test [16]; above 64 µg/mL in test [17]; above 64 µg/mL in test [18]. For the same molecule, the MIC in [19] is 8 µg/mL (≈ 23.6 µM); in [20], 8 µg/mL (≈ 23.6 µM); in [21], 32 µg/mL (≈ 94.4 µM); in test [22], 2 µg/mL (≈ 5.9 µM); in test [23], 1.25 µg/mL (≈ 3.69 µM); in test [24], 1.25 µg/mL (≈ 3.69 µM).

The record behind these values is patent publication US4755610A, “Hapalindoles” (priority 1986, dated 1988).
